What follows are compounds tested against T1, Btk enzyme (His-tagged, full-length) (Homo sapiens, UniProt Q06187) (assay: Bruton's Tyrosine Kinase (Btk) inhibition assay, 33P filtration capture). Settings: 100 μM ATP, 30 μM biotinylated SH2 peptide substrate, 5-10 nM Btk, 30 min at 30° C.
T1 construct: 5-10 nM Btk enzyme (His-tagged, full-length); His tag
Type: biochemical
Excerpt: The assay is a capture of radioactive ^33P phosphorylated product through filtration. The interactions of Btk, biotinylated SH2 peptide substrate (Src homology), and ATP lead to phosphorylation of the peptide substrate. Biotinylated product is bound streptavidin sepharose beads. All bound, radiolabeled products are detected by scintillation counter.
Plates assayed are 96-well polypropylene (Greiner) and 96-well 1.2 μm hydrophilic PVDF filter plates (Millipore). Concentrations reported here are final assay concentrations: 10-100 μM compounds in DMSO (Burdick and Jackson), 5-10 nM Btk enzyme (His-tagged, full-length), 30 μM peptide substrate (Biotin-Aca-[…]-NH2), 100 μM ATP (Sigma), 8 mM imidazole (Sigma, pH 7.2), 8 mM glycerol-2-phosphate (Sigma), 200 μM EGTA (Roche Diagnostics), 1 mM MnCl2 (Sigma), 20 mM MgCl2 (Sigma), 0.1 mg/ml BSA (Sigma), 2 mM DTT (Sigma), 1 μCi ^33P ATP (Amersham), 20% streptavidin sepharose beads (Amersham), 50 mM EDTA (Gibco), 2 M NaCl (Gibco), 2 M NaCl w/1% phosphoric acid (Gibco), microscint-20 (Perkin Elmer).
IC50 determinations are calculated from 10 data points per compound utilizing data produced from a standard 96-well plate assay template. One control compound and seven unknown inhibitors were tested on each plate and each plate was run twice. Typically, compounds were diluted in half-log starting at 100 μM and ending at 3 nM. The control compound was staurosporine. Background was counted in the absence of peptide substrate. Total activity was determined in the presence of peptide substrate. The following protocol was used to determine Btk inhibition.
1) Sample preparation: The test compounds were diluted at half-log increments in assay buffer (imidazole, glycerol-2-phosphate, EGTA, MnCl2, MgCl2, BSA).
• a.) rinse beads by centrifuging at 500 g • b.) reconstitute the beads with PBS and EDTA to produce a 20% bead slurry 3) Pre-incubate reaction mix without substrate (assay buffer, DTT, ATP, ^33P ATP) and mix with substrate (assay buffer, DTT, ATP, ^33P ATP, peptide substrate) 30° C. for 15 min. 4) To start assay, pre-incubate 10 μL Btk in enzyme buffer (imidazole, glycerol-2-phos-phate, BSA) and 10 μL of test compounds for 10 min at RT. 5) Add 30 μL reaction mixture without or with substrate to Btk and compounds. 6) Incubate 50 μL total assay mix for 30 min at 30° C. 7) Transfer 40 μL of assay to 150 μL bead slurry in filter plate to stop reaction. 8) Wash filter plate after 30 min, with following steps • a. 3×250 μL NaCl • b. 3×250 μL NaCl containing 1% phosphoric acid • c.

T1 sequence (Q06187 whole entry): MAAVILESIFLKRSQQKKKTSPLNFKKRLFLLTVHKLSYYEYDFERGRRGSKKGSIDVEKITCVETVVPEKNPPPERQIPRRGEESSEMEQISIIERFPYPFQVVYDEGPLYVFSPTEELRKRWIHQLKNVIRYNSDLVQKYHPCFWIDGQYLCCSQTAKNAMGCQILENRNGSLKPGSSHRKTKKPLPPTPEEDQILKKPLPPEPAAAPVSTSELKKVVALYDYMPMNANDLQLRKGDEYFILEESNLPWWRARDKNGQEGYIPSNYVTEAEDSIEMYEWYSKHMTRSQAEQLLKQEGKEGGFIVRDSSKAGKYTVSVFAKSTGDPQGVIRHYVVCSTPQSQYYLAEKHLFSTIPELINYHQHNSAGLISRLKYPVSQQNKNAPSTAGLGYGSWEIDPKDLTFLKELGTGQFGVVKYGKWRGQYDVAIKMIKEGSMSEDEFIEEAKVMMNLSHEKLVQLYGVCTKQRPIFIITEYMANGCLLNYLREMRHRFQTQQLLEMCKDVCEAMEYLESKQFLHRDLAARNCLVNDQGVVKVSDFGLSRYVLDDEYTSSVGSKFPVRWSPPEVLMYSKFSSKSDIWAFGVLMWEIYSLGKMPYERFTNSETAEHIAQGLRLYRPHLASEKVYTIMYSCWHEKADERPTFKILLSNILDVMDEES

| SMILES | IC50 [nM] |
| --- | --- |
| CN(C)c1ccc2c(c1)CCN(c1cccc(-c3cc(Nc4ccc(C(=O)N5CCOCC5)cn4)c(=O)n(C)c3)c1CO)C2=O [Example I-2, 6-Dimethylamino-2-(2-hydroxymethyl-3-{1-methyl-5-[5-(morpholine-4-carbonyl)-pyridin-2-ylamino]-6-oxo-1,6-dihydro-pyridin-3-yl}-phenyl)-3,4-dihydro-2H-isoquinolin-1-one] | 40 |
| Cc1c(-c2cc(Nc3ccc(C(=O)N4CCOCC4)cn3)c(=O)n(C)c2)cccc1-c1c[nH]c2cc(N(C)C)ccc2c1=O [II-2, 7-Dimethylamino-3-(2-methyl-3-{1-methyl-5-[5-(morpholine-4-carbonyl)-pyridin-2-ylamino]-6-oxo-1,6-dihydro-pyridin-3-yl}-phenyl)-1H-quinolin-4-one] | 370 |
| CN(C)c1ccc2c(=O)n(-c3cccc(-c4cc(Nc5ccc(C(=O)N6CCOCC6)cn5)c(=O)n(C)c4)c3)ccc2c1 [III-1, 6-Dimethylamino-2-(3-{1-methyl-5-[5-(morpholine-4-carbonyl)-pyridin-2-ylamino]-6-oxo-1,6-dihydro-pyridin-3-yl}-phenyl)-2H-isoquinolin-1-one] | 1080 |
| Cc1c(-c2cc(Nc3ccc(C(=O)N4CCOCC4)cn3)c(=O)n(C)c2)cccc1-n1ccc2cc(N(C)C)ccc2c1=O [III-2, 6-Dimethylamino-2-(2-methyl-3-{1-methyl-5-[5-(morpholine-4-carbonyl)-pyridin-2-ylamino]-6-oxo-1,6-dihydro-pyridin-3-yl}-phenyl)-2H-isoquinolin-1-one] | 2760 |
| CN(C)c1ccc2c(c1)CCN(c1cccc(-c3cc(Nc4ccc(C(=O)N5CCOCC5)cn4)c(=O)n(C)c3)c1)C2=O [Example I-1, 6-Dimethylamino-2-(3-{1-methyl-5-[5-(morpholine-4-carbonyl)-pyridin-2-ylamino]-6-oxo-1,6-dihydro-pyridin-3-yl}-phenyl)-3,4-dihydro-2H-isoquinolin-1-one] | 420 |

Reference: patent US7683064B2, “Inhibitors of Bruton's tyrosine kinase” (Roche Palo Alto LLC, priority 2008, dated 2010)
